Experimental findings from patent US20070254899A1, “Soluble salts of thieno[2,3-d]pyrimidine derivatives” (Dynogen Pharmaceuticals, Inc., priority 2006, published 2007) are described below.

Data set [1] deals with rats. Briefly: Small Intestinal Transit Rodent Model (charcoal meal). The format is in vivo, rat. To be noted: for Small intestinal transit, Mean (% of total small intestinal length): 15-min test period. As for the experimental part: Following an overnight fast, rats were brought to the laboratory in their home cages and received an i.p. injection of one of the following: […] Control rats received no treatment. The treated rats were placed back in the home cages and after 30 min, were fed a 2 mL charcoal meal via an oral gavage. Small intestinal transit was measured following 15 min test-period. Each rat was placed briefly in a glass chamber with IsoFlo for anesthesia and sacrificed. The stomach and the small intestine were removed and the total length of the small intestine was measured. Transit was then measured as the distance that the charcoal meal had traveled along the small intestine and expressed as % of the total length. Animals were randomly assigned to experimental groups and experiments were performed as illustrated in Table 3. Ondansetron was supplied from APIN Chemicals LTD. […] MCI-225 was provided by Mitsubishi Pharma Corp. All drugs were dissolved in a vehicle of 100% propylene glycol (1,2-Propanediol) by sonicating for 10 min. Propylene glycol was obtained from Sigma Chemical Co. Ondansetron, a 5-HT3-receptor antagonist was dosed i.p. at 1, 5, and 10 mg/kg. […] All doses were delivered in a final volume of 200 μL. Animals in the vehicle control group received 200 μL of 100% Propylene glycol and animals in the normal control group were untreated. Small intestinal transit in rats was investigated by the passage of a charcoal meal along the small intestine during a defined time period (15-min). The animals were deprived of food for 12-16 hrs prior to the experiments. Rats were given a charcoal meal (a mixture of charcoal, gum arabic, and distilled water) as a 2 mL oral gavage and were sacrificed after a 15-min test period. The distance traveled by the charcoal meal was quantified as a percent of the small intestinal length, using the following equation: Transit (%)=cm traveled by meal/cm total small intestinal length×100 […] Statistical analysis was performed to determine mean, standard error to the mean and standard deviation for each group (See Table 3). Differences between individual dose groups within treatments and comparisons between drug-treated and vehicle-treated groups were determined using an unpaired t test considering that when % is used as a relative unit, t-statistic is relevant. In all cases p<0.05 was considered statistically significant.

In data set [2] the test system is rats. Briefly: Visceromotor response to colorectal distension, acetic acid-induced colonic hypersensitivity. The format is in vivo, rat. To be noted: for Visceromotor response (number of abdominal contractions) to colorectal distension vs vehicle: all doses tested i.p. (ondansetron 1, 5, 10; nisoxetine 3, 10, 30 mg/kg). As to the method: A 10 min recovery was allowed between distensions.
Adult male rats were used in the study.
Ten minute recovery periods were allowed following each distension.
Statistical significance of the treatment groups was assessed using one-way ANOVA followed by Tukey post-test. […] (*) p<0.05, (**) p<0.01, (***) p<0.001

The subject of data set [3] is ferrets. Kind of data set: Cisplatin-induced emesis in the ferret. The format is in vivo, Mustela putario furo. As for the experimental part:
The ability of MCI-225 to reduce retching and vomiting in an accepted model of cytotoxin-induced emesis in the ferret was assessed. Specifically, the experiments described herein investigated the effect of MCI-225 on retching and vomiting induced by cisplatin. Ondansetron was used as a positive control in the model, in view of its known antiemetic activity. Adult male ferrets (Mustela putario furo) weighing 1200-1880 g were purchased from Triple F Farms (Sayre, Pa.) and housed in individual cages at standardized conditions (12:12 h light/dark cycle and 21-23° C.). Prior to the experiments, the ferrets were allowed a 7-10 day acclimatization period to the animal facility. The ferrets were fed a carnivore diet with free access to food and water throughout the course of the study. The use of the ferret model of emesis and the drug treatment were preapproved in accordance with facility standards. A cisplatin solution was prepared by adding preheated (70° C.) saline to cisplatin powder (Sigma-Aldrich Co.) and stirring or sonicating at 40° C. until dissolved. Following administration of the cisplatin and either MCI-225, ondansetron or vehicle alone, the occurrence of retching and vomiting was monitored for a period of 6 hours. Retching was defined as the number of forceful rhythmic contractions of the abdomen occurring with the animal in characteristic posture, but not resulting in the expulsion of upper gastrointestinal tract contents (Watson et al., British Journal of Pharmacology, 115(1): 84-94 (1994)). Vomiting was defined as the forceful oral expulsion of upper gastrointestinal contents. The latency of the retching or vomiting response and the number of episodes were recorded for each animal and summarized for each experimental group (Wright et al., Infect. Immun., 68(4): 2386-9 (2000)). Following one hour of acclimation to the observation cage, ferrets received an intraperitoneal (i.p.) injection of cisplatin (5 mg/kg in 5 mL) followed in about 2 minutes by i.p. injection of a single dose of MCI-225 or ondansetron (Rudd and Naylor, Eur. J. Pharmacol., 322: 79-82 (1997)). Dose-response effects of MCI-225 dosed at 1, 10 and 30 mg/kg i.p. in a 0.5 mL/kg solution or ondansetron dosed at 5 and 10 mg/kg i.p. in a 0.5 mL/kg solution were studied. Each animal received a single-dose drug treatment. In addition, three animals received an initial dose (30 mg/kg i.p.) and a second MCI-225 injection (30 mg/kg i.p.) 180 minutes following the initial dose. […] All groups were randomized.

Data set [4] is described as follows: GVS (gravimetric vapour sorption), single cycle. The format is physicochemical. As to the method:
(§1) Form I was characterized by pKa, LogP, LogPion and LogD determination and prediction, XRPD before and after storage at 40° C./75% RH for 4 weeks, PLM, DSC and TGA, ^1HNMR, solubility in water with pH measurement, HPLC purity before and after storage at 40° C./75% RH for 4 weeks, water content, GVS with XRPD and purity analysis after measurement, and VT-XRPD.
This weight increase was not associated with any significant hysteresis between the adsorption and desorption cycles.

Data set [5] is classed as physicochemical. As for the experimental part:
as §1
As expected from the predicted values, the compound is suitable for a mono salt screen and should form strong stable salts.

Data set [6] is described as follows: Storage at 40° C./75% RH (XRPD, HPLC purity, colour). The format is physicochemical.
How the values of data set [7] were obtained:
The suspension was then equilibrated at 25° C. for 24 hours followed by a pH check and filtration through a glass fibre C 96 well plate. […] HPLC using a generic 5 minute method was used to quantify the amount of sample in solution with reference to a standard dissolved in DMSO at 0.1 mg/ml. Various volumes of the standard, diluted and undiluted tests were injected. […] If sufficient solid remained in the filter plate the XRPD was normally checked for phase changes, hydrate formation, amorphization, crystallization and other changes.

The format of data set [8] is physicochemical. As for the experimental part:
as §1
LogP, LogPion and LogD values were measured by using different ratios of 0.1 5M KCl(Aq) to 1-octanol, with refinement of a multiset of the data. The measured LogP, 3.96, is in good agreement with the predicted values.
This is another data set of the same source.

The subject of data set [9] is rats. Briefly: Water avoidance stress (WAS) model of increased colonic transit, fecal pellet output. The format is in vivo, rat. To be noted: for WAS-induced fecal pellet output in 1 hour: all doses tested i.p. (MCI-225, nisoxetine 3, 10, 30; ondansetron 1, 5, 10 mg/kg). As to the method: Ondansetron (5-HT3 receptor antagonist), nisoxetine (NARI) and a combination of ondansetron and nisoxetine were used as comparison compounds. The model provides a method of evaluating the effectiveness of a compound in a specific patient group of IBS sufferers where stress induced colonic motility is considered a significant contributing factor.
Fecal pellet output was measured by counting the total number of fecal pellets produced during 1 hour of WAS.
All rats underwent sham stress (I-hour in stress chamber without water) for 2-4 consecutive days before undergoing WAS (sham was performed until rats produced 0-1 pellet per hour for 2 consecutive days). At the end of the 1-hour stress period, the fecal pellets were counted and recorded.
WAS causes an acceleration of colonic transit, which can be quantified by counting the number of fecal pellets, produced during the stress procedure. Rats were placed for 1-hour into a stress chamber onto a raised platform 7.5 cm×7.5 cm×9 cm (L×W×H) in the center of a stress chamber filled with room temperature water 8 cm in depth.
Control drugs for this study were ondansetron and nisoxetine. Ondansetron was supplied from APIN Chemicals LTD. Nisoxetine was supplied by Tocris. […] All drugs and the vehicle were administered as an i.p. injection in a volume of 0.2 mL.
Statistical significance was assessed using one-way ANOVA followed by Tukey post-test. Statistical differences were compared between the WAS groups and the sham stress group and was considered significant if p<0.05. (*) p<0.05, (**) p<0.01, (***) p<0.001

Where [10] appears, read: 30 mg/kg b.i.d, i.p., 180-min interval.

Where “and” joins values, the source holds several entries; their conditions need not be identical. Equal entries are not always repeated. Structures can show the parent of a compound that is named as a salt.

Regarding `Cc1cc2c(-c3ccccc3F)nc(N3CCNCC3)nc2s1` [MCI-225, 4-(2-fluorophenyl)-6-methyl-2-(piperazin-1-yl)thieno[2,3-d] pyrimidine hydrochloride], the “Small intestinal transit, Mean (% of total small intestinal length)” value was 30.1% in data set [1] (3 mg/kg i.p.); 4.2±2.6% and 4.2% in [1] (10 mg/kg i.p., hydrochloride); 8.8% in data set [1] (30 mg/kg i.p.). In addition, in data set [2] (30 mg/kg i.p., acetic acid sensitized rats), the “Animals in which the visceromotor response to CRD was eliminated” value is recorded as 50 % of the animals. Also, the Latency in data set [3] (1 mg/kg i.p.) was 186 ± 35 min; in data set [3] (10 mg/kg i.p.), 192 ± 57 min; in data set [3] (setting [10]) it was 360 ± 0 min; in data set [3] (30 mg/kg i.p.), 287 ± 38 min. For the same molecule, the “Retches (360 min)” value is given as 30.4 ± 9.1 in [3] (1 mg/kg i.p.), 22.9 ± 10.3 in data set [3] (10 mg/kg i.p.), 0.0 ± 0.0 in data set [3] (setting [10]) and 3.3 ± 2.2 in [3] (30 mg/kg i.p.). The “Total Events” value was 32.9 ± 9.8 in [3] (1 mg/kg i.p.), 25.5 ± 11.1 in data set [3] (10 mg/kg i.p.), 0.0 ± 0.0 in data set [3] (setting [10]) and 4.0 ± 2.6 in data set [3] (30 mg/kg i.p.). Moreover, the “Vomits (360 min)” value in data set [3] (1 mg/kg i.p.) stood at 2.5 ± 0.7; in data set [3] (10 mg/kg i.p.), 2.6 ± 1.0; in data set [3] (setting [10]), 0.0 ± 0.0; in data set [3] (30 mg/kg i.p.), 0.7 ± 0.5.
The term Aqueous solubility denotes the dissolved amount per volume that the medium holds. Lower therefore signals a poorly soluble substance. As a reminder, the LogP is the decadic logarithm of the partition coefficient of the neutral form, usually between octanol and water. Read a high LogP as higher lipophilicity. A word on the LogD: it is lipophilicity at a set pH, counting ionised and neutral species. In the case of “4-(2-fluorophenyl)-6-methyl-2-(piperazin-1-yl)thieno[2,3-d] pyrimidine hydrochloride [MCI-225]”, in [4] (between 0 and 90% RH), the “GVS total weight increase” value is on record as 5.0%. Moreover, in data set [4] (between 20% and 30% RH, equivalent to 1.0 moles of water), the GVS weight increase result is reported as “about 4.8%”. Also, in [5], the “pKa (basic)” value amounted to 8.64 and the “pKa of second basic centre” value worked out at 0.81. For the same molecule, in data set [6] (4 weeks at 40° C./75% RH, ambient light), the “Appearance of material surface after storage” value is given as “gone yellow”. The “HPLC purity after storage” value in data set [6] (4 weeks at 40° C./75% RH, ambient light, initial purity 100%) worked out at 99.0%. The “XRPD pattern after storage” value in [6] (40° C./75% RH, four weeks) was “unchanged”. For the same molecule, in data set [7], the Aqueous solubility amounted to 2100 µg/mL; the “Aqueous solubility, equivalent as the free base” value turned out to be 1700 µg/mL; the “pH after solubility equilibration” value is on record as 6.33. In data set [8], the log partition coefficient (LogP) was 3.96 and the LogPion is on record as 1.41. The molecule also had a LogD in data set [8] (pH 7.4) of 2.72.
With `CNCCC(Oc1ccccc1OC)c1ccccc1` (centres unmarked) [Nisoxetine], in data set [1] (30 mg/kg i.p.), the “Animals with charcoal meal completely retained in the stomach” value was 4 out of 5. Also, the results for the Small intestinal transit entry in data set [1] (30 mg/kg i.p.) and in [1] (3 or 10 mg/kg i.p.) were “almost completely inhibited the transit” and “tendency to decrease small intestinal transit”, respectively. For the same molecule, the “Behavior in the home cage during the experiments” value in [2] (30 mg/kg i.p.) is reported as “increased exploratory behavior”. In addition, in data set [2], the “Visceromotor response (number of abdominal contractions) to colorectal distension vs vehicle” value is given as “no significant effect”. The “Fecal pellets produced during WAS vs vehicle treated group” value in data set [9] (10 and 30 mg/kg i.p.) was “significantly fewer fecal pellet produced”. Moreover, in [9], the “WAS-induced fecal pellet output in 1 hour” value is reported as “reduced by all doses”.
As for `Cc1nccn1CC1CCc2c(c3ccccc3n2C)C1=O` (centres unmarked) [Ondansetron], the “Small intestinal transit vs vehicle” value in data set [1] (all doses tested i.p. (MCI-225 3, 10, 30; ondansetron 1, 5, 10 mg/kg)) was “significant reduction in small intestinal transit”. The “Visceromotor responses at moderate and high intraluminal pressure” value in data set [2] (10 mg/kg i.p., 30 and 60 mmHg) is given as “did not abolish the responses”. For the same molecule, the “Behavioral activity of the rats” value in data set [2] (1, 5 or 10 mg/kg i.p.) is “No significant changes in the behavioral activity”. Further, the “Visceromotor response (number of abdominal contractions) to colorectal distension vs vehicle” value in data set [2] is listed as “dose-dependent decrease in the number of abdominal contractions”. The “WAS-induced fecal pellet output in 1 hour” value in data set [9] is on record as “dose-dependent inhibition”. For the same molecule, the “Latency of the emetic response following cisplatin” value in data set [3] (all doses tested i.p.) is “increase in the latency”. Further, the “Emetic events (retches and vomits) induced by cisplatin” value in [3] (all doses tested i.p. (ondansetron 5, 10; MCI-225 1, 10, 30 mg/kg)) is recorded as “dose-dependently reduced the number of emetic events”.
